# In US10344025B2, “GLS1 inhibitors for treating disease” (Board of Regents, The University of Texas System, priority 2014, dated 2019):
# How the values were obtained:
# [1] = target: purified recombinant human GAC (GLS1) (Homo sapiens (Human), UniProt O94925); test: GLS1 Enzymatic Activity Assay (dual-coupled enzymatic assay, resorufin/Amplex UltraRed readout); assay type: biochemical;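 also: glutamate from GAC coupled via glutamate oxidase and peroxidase to resorufin, read as fluorescence (ex 530, em 590 nm) kinetically or at 20 min, four-parameter logistic IC50 fit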
# A549 cells = test: Proliferation Assay (A549 viability, Cell Titer Fluor, 72 hours); assay type: cell-based; details: Homo sapiens, A549, 72 h
# In short: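 Cell Titer Fluor fluorescence after 72 h compound treatment (0.5% DMSO, 37 °C, 5% CO2) of A549 cells plated 24 h earlier at 1000/well. Four-parameter logistic fitting gave IC50.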
# Chain of purified recombinant human GAC (GLS1) (O94925 other isoform, or with tags, fused parts or gaps): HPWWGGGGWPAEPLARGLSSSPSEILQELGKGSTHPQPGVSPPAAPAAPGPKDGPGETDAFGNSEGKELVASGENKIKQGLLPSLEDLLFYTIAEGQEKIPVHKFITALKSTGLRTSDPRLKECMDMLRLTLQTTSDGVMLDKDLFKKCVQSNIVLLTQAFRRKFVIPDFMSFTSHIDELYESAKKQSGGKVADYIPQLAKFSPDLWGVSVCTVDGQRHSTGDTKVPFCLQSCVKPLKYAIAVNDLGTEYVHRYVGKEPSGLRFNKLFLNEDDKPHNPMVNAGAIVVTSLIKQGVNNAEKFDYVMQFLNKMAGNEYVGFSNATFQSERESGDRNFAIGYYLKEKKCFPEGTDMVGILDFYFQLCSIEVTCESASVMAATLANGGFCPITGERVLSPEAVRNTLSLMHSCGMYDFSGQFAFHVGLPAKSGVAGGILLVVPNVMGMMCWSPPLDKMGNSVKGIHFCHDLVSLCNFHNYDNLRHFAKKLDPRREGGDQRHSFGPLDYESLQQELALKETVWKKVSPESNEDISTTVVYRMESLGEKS
SMILES,IC50 [1] [nM],EC50 (A549 cells) [nM]
"O=C(NCc1ccc(C(F)(F)F)nc1)c1cn(CCC(F)Cn2cc(C(=O)NCc3cccc(OC(F)(F)F)c3)nn2)nn1 (stereo not shown) [Example 437, 1-{3-fluoro-4-[4-({[3-(trifluoromethoxy)phenyl]methyl}carbamoyl)-1H-1,2,3-triazol-1-yl]butyl}-N-{[6-(trifluoromethyl)pyridin-3-yl]methyl}-1H-1,2,3-triazole-4-carboxamide]",< 100,< 100
"O=C(NCc1cccc(C(F)(F)F)n1)c1cn(CCC(F)Cn2cc(C(=O)NCc3cccc(OC(F)(F)F)c3)nn2)nn1 (stereo not shown) [Example 438, 1-{3-fluoro-4-[4-({[3-(trifluoromethoxy)phenyl]methyl}carbamoyl)-1H-1,2,3-triazol-1-yl]butyl}-N-{[6-(trifluoromethyl)pyridin-2-yl]methyl}-1H-1,2,3-triazole-4-carboxamide]",< 100,< 100
"O=C(NCc1cc(C(F)(F)F)ccn1)c1cn(CCC(F)Cn2cc(C(=O)NCc3cccc(OC(F)(F)F)c3)nn2)nn1 (stereo not shown) [Example 439, 1-{3-fluoro-4-[4-({[3-(trifluoromethoxy)phenyl]methyl}carbamoyl)-1H-1,2,3-triazol-1-yl]butyl}-N-{[4-(trifluoromethyl)pyridin-2-yl]methyl}-1H-1,2,3-triazole-4-carboxamide]",< 100,< 100
"O=C(NCc1ncccc1F)c1cn(CCC(F)Cn2cc(C(=O)NCc3cccc(OC(F)(F)F)c3)nn2)nn1 (stereo not shown) [Example 440, 1-{3-fluoro-4-[4-({[3-(trifluoromethoxy)phenyl]methyl}carbamoyl)-1H-1,2,3-triazol-1-yl]butyl}-N-[(3-fluoropyridin-2-yl)methyl]-1H-1,2,3-triazole-4-carboxamide]",< 100,100 to 500
"O=C(NCc1ccc(C(F)(F)F)cn1)c1cn(CCC(F)Cn2cc(C(=O)NCc3cc(OC(F)(F)F)ccc3F)nn2)nn1 (stereo not shown) [Example 441, 1-{2-fluoro-4-[4-({[5-(trifluoromethyl)pyridin-2-yl]methyl}carbamoyl)-1H-1,2,3-triazol-1-yl]butyl}-N-{[2-fluoro-5-(trifluoromethoxy)phenyl]methyl}-1H-1,2,3-triazole-4-carboxamide]",< 100,< 100
"Cc1ccc(CNC(=O)c2nnc(CCC(F)Cn3cc(C(=O)NCc4cccc(OC(F)(F)F)c4)nn3)s2)cn1 (stereo not shown) [Example 442, 5-{3-fluoro-4-[4-({[3-(trifluoromethoxy)phenyl]methyl}carbamoyl)-1H-1,2,3-triazol-1-yl]butyl}-N-[(6-methylpyridin-3-yl)methyl]-1,3,4-thiadiazole-2-carboxamide]",< 100,< 100
"Cc1ccc(CNC(=O)c2nnc(CCC(F)Cn3cc(C(=O)NCc4cc(OC(F)(F)F)ccc4F)nn3)s2)cn1 (stereo not shown) [Example 443, 5-{3-fluoro-4-[4-({[2-fluoro-5-(trifluoromethoxy)phenyl]methyl}carbamoyl)-1H-1,2,3-triazol-1-yl]butyl}-N-[(6-methylpyridin-3-yl)methyl]-1,3,4-thiadiazole-2-carboxamide]",< 100,< 100
"O=C(NCc1ncccc1F)c1cn(CCC(F)Cn2cc(C(=O)NCc3cc(OC(F)(F)F)ccc3F)nn2)nn1 (stereo not shown) [Example 444, 1-{3-fluoro-4-[4-({[2-fluoro-5-(trifluoromethoxy)phenyl]methyl}carbamoyl)-1H-1,2,3-triazol-1-yl]butyl}-N-[(3-fluoropyridin-2-yl)methyl]-1H-1,2,3-triazole-4-carboxamide]",< 100,< 100
"O=C(NCc1ccc(C(F)(F)F)cn1)c1cn(CC(F)CCc2nnc(C(=O)NCc3cccc(OC(F)(F)F)c3)s2)nn1 (stereo not shown) [Example 445, 5-{3-fluoro-4-[4-({[5-(trifluoromethyl)pyridin-2-yl]methyl}carbamoyl)-1H-1,2,3-triazol-1-yl]butyl}-N-{[3-(trifluoromethoxy)phenyl]methyl}-1,3,4-thiadiazole-2-carboxamide]",< 100,< 100
"O=C(NCc1cc(C(F)(F)F)ccn1)c1cn(CC(F)CCc2nnc(C(=O)NCc3cccc(OC(F)(F)F)c3)s2)nn1 (stereo not shown) [Example 446, 5-{3-fluoro-4-[4-({[4-(trifluoromethyl)pyridin-2-yl]methyl}carbamoyl)-1H-1,2,3-triazol-1-yl]butyl}-N-{[3-(trifluoromethoxy)phenyl]methyl}-1,3,4-thiadiazole-2-carboxamide]",< 100,< 100

# Results, then the molecule that gave them:
IC50 [1] [nM],EC50 (A549 cells) [nM],SMILES
< 100,< 100,"Cc1ccc(CNC(=O)c2cn(CC(F)CCn3cc(C(=O)NCc4cccc(OC(F)(F)F)c4)nn3)nn2)cn1 (stereo not shown) [Example 430, 1-{2-fluoro-4-[4-({[3-(trifluoromethoxy)phenyl]methyl}carbamoyl)-1H-1,2,3-triazol-1-yl]butyl}-N-[(6-methylpyridin-3-yl)methyl]-1H-1,2,3-triazole-4-carboxamide]"
< 100,< 100,"O=C(NCc1cccc(OC(F)(F)F)c1)c1cn(CCC(F)Cn2cc(C(=O)NCc3ccc(C(F)(F)F)cn3)nn2)nn1 (stereo not shown) [Example 431, 1-{2-fluoro-4-[4-({[3-(trifluoromethoxy)phenyl]methyl}carbamoyl)-1H-1,2,3-triazol-1-yl]butyl}-N-{[5-(trifluoromethyl)pyridin-2-yl]methyl}-1H-1,2,3-triazole-4-carboxamide]"
< 100,< 100,"O=C(NCc1cc(C(F)(F)F)ccn1)c1cn(CCC(F)Cn2cc(C(=O)NCc3cc(OC(F)(F)F)ccc3F)nn2)nn1 (stereo not shown) [Example 432, 1-{2-fluoro-4-[4-({[4-(trifluoromethyl)pyridin-2-yl]methyl}carbamoyl)-1H-1,2,3-triazol-1-yl]butyl}-N-{[-fluoro-5-(trifluoromethoxy)phenyl]methyl}-1H-1,2,3-triazole-4-carboxamide]"
< 100,< 100,"O=C(NCc1ccc(C(F)(F)F)cn1)c1cn(CCC(F)Cn2cc(C(=O)NCc3cccc(OC(F)(F)F)c3)nn2)nn1 (stereo not shown) [Example 433, 1-{2-fluoro-4-[4-({[5-(trifluoromethyl)pyridin-2-yl]methyl}carbamoyl)-1H-1,2,3-triazol-1-yl]butyl}-N-{[3-(trifluoromethoxy)phenyl]methyl}-1H-1,2,3-triazole-4-carboxamide]"
< 100,< 100,"Cc1ccc(CNC(=O)c2cn(CCC(F)Cn3cc(C(=O)NCc4cccc(OC(F)(F)F)c4)nn3)nn2)cn1 (stereo not shown) [Example 434, 1-[2-fluoro-4-(4-{[(6-methylpyridin-3-yl)methyl]carbamoyl}-1H-1,2,3-triazol-1-yl)butyl]-N-{[3-(trifluoromethoxy)phenyl]methyl}-1H-1,2,3-triazole-4-carboxamide]"
< 100,< 100,"O=C(NCc1cccc(OC(F)(F)F)c1)c1cn(CCC(F)Cn2cc(C(=O)NCc3ccc(C(F)(F)F)nc3)nn2)nn1 (stereo not shown) [Example 435, 1-{2-fluoro-4-[4-({[3-(trifluoromethoxy)phenyl]methyl}carbamoyl)-1H-1,2,3-triazol-1-yl]butyl}-N-{[6-(trifluoromethyl)pyridin-3-yl]methyl}-1H-1,2,3-triazole-4-carboxamide]"
< 100,< 100,"O=C(NCc1cccc(OC(F)(F)F)c1)c1cn(CCC(F)Cn2cc(C(=O)NCc3cccc(C(F)(F)F)n3)nn2)nn1 (stereo not shown) [Example 436, 1-{2-fluoro-4-[4-({[3-(trifluoromethoxy)phenyl]methyl}carbamoyl)-1H-1,2,3-triazol-1-yl]butyl}-N-{[6-(trifluoromethyl)pyridin-2-yl]methyl}-1H-1,2,3-triazole-4-carboxamide]"
